From PMC10381533, “Inhibitory Effects of the Fungal Pigment Rubiginosin C on Hyphal and Biofilm Formation in Candida albicans and Candida auris” (Journal of Fungi, 2023)
Read-outs that look alike come from different tables or passages of the source. *1 amine or outer side, *2 acyl side, *3 side chain or, on linkers, in order; H or OH if unused. Where a SMILES comes first, the peptide text is derived from it. [ ]: non-standard residue; d: D form. The star is where a group is joined. X1 = O=C(C[C@H](N[*:1])c1ccc(O)cc1)[*:2]; dVal(3-OH) = CC(C)(O)[C@@H](N)C(=O)O; ΔIle(E) = CC/C(C)=C(/N)C(=O)O; Isovaleryl = CC(C)CC(=O)*; Agmatine = N=C(N)NCCCCN*; NMeA = CN[C@@H](C)C(=O)O; ΔVal = CC(C)=C(N)C(=O)O

How the values were obtained:
[1] = test system: Pseudomonas aeruginosa (PA 14) DSM 19882 biofilm; assay: Crystal violet biofilm inhibition assay, P. aeruginosa; type: cell-based; settings: assay conducted once
Protocol: Selected azaphilones Rub C and W, Rut A and B were tested against the formation of biofilms in Pseudomonas aeruginosa (PA 14) DSM 19882. Bacterial strain was precultured in 25 mL LB medium (Luria - Bertani Broth) with a 250 mL flask at 37 °C with shaking 100 rpm overnight. The turbidity of the baterial solution was measured and diluted to match the turbidity of a 0.1 McFarland standard in M63 medium, which is supplemented with magnesium sulfate, glucose and casamino acids as previously described. The compounds were added into 150 μL bacterial solution at the concentration (250–2 μg/mL) then the solution was added in U-bottom 96 well plate (Falcon ref.no 351177, Thermo Fisher Scientific). The plates were incubated at 37 °C at 150 rpm for 24 h and biofilms were established at the air liquid interface. The plates were rinsed once by using PBS buffer, the biofilms were stained by 150 μL 0.1% CV at room temperature for 15 min and then rinsed two times by using PBS buffer. The absorbance was quantified with the plate reader (Synergy 2, BioTek) at 550 nm using ethanol (95%). Methanol (2.5 %) and myxovalargin A (250 –2 μg/mL) were used as negative control and positive control, respectively. The assay was conducted for […]
(§1) Table S2: Selected azaphilones were tested against the formation of biofilm of S. aureus, P. aeruginosa as well as C. auris and dispersal effect on preformed biofilm of S. aureus compared to solvent control (= 0%), respectively. SDs are shown as ±SD.
(§2) Compounds Strains Concentrations [µg/mL] […]

[2] = test system: human endocervical adenocarcinoma KB-3-1 [ACC 158] cells; assay: MTT cytotoxicity assay, KB-3-1; type: cell-based; settings: KB 3-1
Protocol: (§3) Cytotoxic effects were evaluated on human endocervical adenocarcinoma KB-3-1 [ACC 158] cells and mouse fibroblasts L929 [ACC 2] upon treatment with Rub C, W, and Rut A and B within the concentration range of 37 μg/mL–0.63 ng/mL. The half-maximum inhibitory concentrations (IC50) were determined by standard MTT assays as reported previously (see the Supplementary Material for detailed information). The IC50 values of Rub A and Z have currently been reported. […]
(§4) KB-3-1 (ACC 158) cervix carcinoma as well as L929 (ACC 2) mouse fibroblasts were cultured under standard cell culture conditions (37 °C, 5% CO2, 95% humidified atmosphere). The cells were maintained in high glucose DMEM containing 10% fetal bovine serum and 100 U/mL penicillin and streptomycin (Gibco, Thermo Fisher Scientific, Waltham, USA). Cell lines were serially passaged after trypsinization, using 0.05% trypsin / 0.02% EDTA solution. The cultures were routinely monitored for potential contamination, and only mycoplasma free cultures were used. The test compounds were investigated for their anti-proliferative effect on cell lines, using the 3-(4,5-dimethylthiazol-2-yl)-2,5-diphenyltetrazolium bromide (MTT) based cell viability assay. Cells were seeded in 96 well microtiter plates (Sarstedt, Germany) with a cell density of 0.05 * 10^6 cells per mL and 100 μL per well and were incubated for 24 h. […]
(§5) Absorbances at 570 nm and 630 nm were measured with a plate reader (Tecan, Männedorf, canton of Zürich, Switzerland). Background absorbance (630 nm) was subtracted from the formazan signal (570 nm). The resulting absorbance is directly proportional to the amount of viable cells. The control was normalized to 100% viable cells, and the viability of cells treated with the test compounds was calculated accordingly. IC50 values were calculated based on a sigmoidal fit model using GraphPad Prism. Means and SD were calculated from at least four independent experiments. […]

[3] = test system: mouse fibroblasts L929 [ACC 2]; assay: MTT cytotoxicity assay, L929; type: cell-based
Protocol: as §3, §4, §5

[4] = test system: human endocervical adenocarcinoma KB-3-1 [ACC 158] cells; settings: second value of the cell; cited from earlier work
[5] = test system: mouse fibroblasts L929 [ACC 2]; settings: second value of the cell; cited from earlier work
[6] = test system: Staphylococcus aureus (DSM 1104) biofilm; assay: Crystal violet biofilm inhibition assay, S. aureus; type: cell-based
Protocol: Selected azaphilones Rub C and W, Rut A and B were tested against the formation of biofilms in Staphylococcus aureus (DSM 1104). S. aureus DSM 1104 from a −20 °C stock was precultured in 25 mL CASO (casein-peptone soymeal-peptone) medium in a 250 mL flask at 37 °C with 100 rpm for 20 h. The OD600 of the culture solution was adjusted to 0.001 McFarland standard and incubated in 96-well microtiter plates (TPP tissue culture ref.no 92196, Switzerland) for 18 h at 37 °C with 150 μL of serially diluted test […]
(§6) compounds (250–2 μg/mL) in CASO with 4% glucose broth. The inhibition of biofilm formation was evaluated by staining with 150 μL of 0.1% crystal violet (CV; Thermo Fisher) following previously established protocols. In the next step, the supernatant of the 96-well plate was discarded and the wells were rinsed once with PBS buffer. The remaining biofilms were stained at room temperature for 15 min, rinsed three times with PBS buffer, and finally dissolved in 150 μL ethanol (95%). The absorbance of the resulting solution at 530 nm was quantified using a plate reader (Synergy 2, BioTek). Methanol (2.5%) and microporenic acid A (MAA) (250–2 μg/mL) were used as negative and positive controls. Standard deviations (SD) of two repeats with duplicates were 10% or less. […]
μg/mL) were used as negative control and positive control, respectively. The assay was conducted for […]
as §1, §2

[7] = test system: preformed S. aureus biofilm; assay: Dispersal effect on preformed S. aureus biofilm; type: cell-based, Staphylococcus aureus
Protocol: as §6, §1, §2

CC/C(C)=C(/NC(=O)[C@H](NC(=O)[C@H](NC(=O)[C@@H](CCCN=C(N)N)NC(=O)C(NC(=O)[C@@H](NC(=O)C[C@H](NC(=O)[C@H](NC(=O)[C@H](NC(=O)[C@H](C)N(C)C(=O)[C@H](C)NC(=O)C(NC(=O)CC(C)C)=C(C)C)C(C)C)C(C)C)c1ccc(O)cc1)C(C)C)=C(C)C)C(C)C)C(C)C)C(=O)N[C@H](C)C(=O)N[C@@H](C(=O)NCCCCN=C(N)N)C(C)(C)O [Myxovalargin A, myxovalargin A, reference compound] (Isovaleryl-[ΔVal]A[NMeA][dV][dV][X1]V[ΔVal][dR][dV][dV][ΔIle(E)][dA][dVal(3-OH)]-Agmatine)
inhibition of P. aeruginosa biofilm formation compared to solvent control (= 0%) ([1]; 2 µg/mL): / ((/) no activity) | inhibition of P. aeruginosa biofilm formation compared to solvent control (= 0%) ([1]; 3.9 µg/mL): / ((/) no activity) | inhibition of P. aeruginosa biofilm formation compared to solvent control (= 0%) ([1]; 7.8 µg/mL): / ((/) no activity) | inhibition of P. aeruginosa biofilm formation compared to solvent control (= 0%) ([1]; 15.6 µg/mL): / ((/) no activity) | inhibition of P. aeruginosa biofilm formation compared to solvent control (= 0%) ([1]; 31.3 µg/mL): 61% | inhibition of P. aeruginosa biofilm formation compared to solvent control (= 0%) ([1]; 62.5 µg/mL): 59% | inhibition of P. aeruginosa biofilm formation compared to solvent control (= 0%) ([1]; 125 µg/mL): 65% | inhibition of P. aeruginosa biofilm formation compared to solvent control (= 0%) ([1]; 250 µg/mL): 55%

C/C(=C\c1csc(C)n1)[C@@H]1C[C@@H]2O[C@]2(C)CCC[C@H](C)[C@H](O)[C@@H](C)C(=O)C(C)(C)[C@@H](O)CC(=O)O1 [Epothilone B, reference compound]
IC50 [2]: 53 pM | IC50 [3]: 170 pM | IC50 [4]: 28 pM | IC50 [5]: 31 pM

CC(C)=CCC/C(C)=C/CC/C(C)=C/CC/C(C)=C/CO[C@@H](C(=O)O)[C@H](CC(=O)O)C(=O)O [MAA, microporenic acid A, reference compound]
inhibition of S. aureus biofilm formation compared to solvent control (= 0%) ([6]; 2 µg/mL): / ((/) no activity) | inhibition of S. aureus biofilm formation compared to solvent control (= 0%) ([6]; 3.9 µg/mL): 45 ±10% | inhibition of S. aureus biofilm formation compared to solvent control (= 0%) ([6]; 7.8 µg/mL): 77 ±10% | inhibition of S. aureus biofilm formation compared to solvent control (= 0%) ([6]; 15.6 µg/mL): 83 ±6% | inhibition of S. aureus biofilm formation compared to solvent control (= 0%) ([6]; 31.3 µg/mL): 86 ±4% | inhibition of S. aureus biofilm formation compared to solvent control (= 0%) ([6]; 62.5 µg/mL): 86 ±4% | inhibition of S. aureus biofilm formation compared to solvent control (= 0%) ([6]; 125 µg/mL): 85 ±5% | inhibition of S. aureus biofilm formation compared to solvent control (= 0%) ([6]; 250 µg/mL): 83 ±6% | dispersal effect on preformed biofilm of S. aureus compared to solvent control (= 0%) ([7]; 15.6 µg/mL): 33 ±10% | dispersal effect on preformed biofilm of S. aureus compared to solvent control (= 0%) ([7]; 31.3 µg/mL): 54 ±6% | dispersal effect on preformed biofilm of S. aureus compared to solvent control (= 0%) ([7]; 62.5 µg/mL): 60 ±9% | dispersal effect on preformed biofilm of S. aureus compared to solvent control (= 0%) ([7]; 125 µg/mL): 65 ±7% | dispersal effect on preformed biofilm of S. aureus compared to solvent control (= 0%) ([7]; 250 µg/mL): 65 ±4%
